# Source: the supplement of paper PMC13380429
# Columns and labels:
# Settings in all cases: 72 h
# [1] = tested on: Caco-2; test: cell viability relative to DMSO; higher = less toxic
# [2] = tested on: Calu-3; test: as above
# [3] = tested on: HepG2; test: as above
# [4] = tested on: U2OS; test: as above
# [5] = tested on: Vero E6; test: as above
# [6] = tested on: Caco-2; test: relative viability EC50 (midpoint between 100% and the lowest measured viability); higher = less toxic
# [7] = tested on: Calu-3; test: as above
# [8] = tested on: HepG2; test: as above
# [9] = tested on: U2OS; test: as above
# [10] = tested on: Vero E6; test: as above
# [11] = tested on: Caco-2; test: drug sensitivity score (DSS) for viability; higher = more toxic; extreme values may be limits of the assay
# [12] = tested on: Calu-3; test: as above
# [13] = tested on: HepG2; test: as above
# [14] = tested on: U2OS; test: as above
# [15] = tested on: Vero E6; test: as above
SMILES,cell viability ([1]; 1 nM) [%],cell viability ([1]; 10 nM) [%],cell viability ([1]; 100 nM) [%],cell viability ([1]; 1000 nM) [%],cell viability ([1]; 10000 nM) [%],cell viability ([2]; 1 nM) [%],cell viability ([2]; 10 nM) [%],cell viability ([2]; 100 nM) [%],cell viability ([2]; 1000 nM) [%],cell viability ([2]; 10000 nM) [%],cell viability ([3]; 1 nM) [%],cell viability ([3]; 10 nM) [%],cell viability ([3]; 100 nM) [%],cell viability ([3]; 1000 nM) [%],cell viability ([3]; 10000 nM) [%],cell viability ([4]; 1 nM) [%],cell viability ([4]; 10 nM) [%],cell viability ([4]; 100 nM) [%],cell viability ([4]; 1000 nM) [%],cell viability ([4]; 10000 nM) [%],cell viability ([5]; 1 nM) [%],cell viability ([5]; 10 nM) [%],cell viability ([5]; 100 nM) [%],cell viability ([5]; 1000 nM) [%],cell viability ([5]; 10000 nM) [%],relative viability EC50 [6] [µM],relative viability EC50 [7] [µM],relative viability EC50 [8] [µM],relative viability EC50 [9] [µM],relative viability EC50 [10] [µM],drug sensitivity score [11],drug sensitivity score [12],drug sensitivity score [13],drug sensitivity score [14],drug sensitivity score [15]
C=CCC1(CC(C)C)C(=O)NC(=O)NC1=O [butalbital],82.1,114,80.1,105,102,94.5,96.7,102,103,114,108,99.6,92.5,109,94.8,95.1,97.6,98.8,94.3,112,105,106,118,109,89.9,> 10,> 10,> 10,> 10,> 10,0,0,0,0,0
CCCC[C@H]1OC(=O)c2ccccc21 [butylphthalide],111,95.2,102,88.9,102,103,96.8,98.3,95.5,104,104,107,97.2,97.8,94.9,102,98.9,102,95,98.7,103,91,105,106,101,> 10,> 10,> 10,> 10,> 10,0,0,0,0,0
CC[C@@]1(O)C(=O)OCc2c1cc1n(c2=O)Cc2cc3ccccc3nc2-1 [camptothecin],100,87.6,56.4,9.4,25.5,97.9,88.4,59.8,40.4,14.2,87.8,63.4,36.7,6,1.4,95.8,101,86.5,52,3.7,94.9,96.4,68.7,37.4,4,0.0939,0.159,0.027,0.891,0.324,21.3,17.1,28.8,11.3,15.9
COc1ccc(Nc2nccc(NCCO)n2)cc1 [cardiogenol-C],105,87.7,101,95.8,103,94.4,92.7,92.5,92.5,102,93.4,93.1,93.4,108,102,97.7,97.2,102,96.1,98.2,94.4,105,94.8,104,100,> 10,> 10,> 10,> 10,> 10,0,0,0,0,0
CC(C)(C)NCC(O)COc1cccc2c1CCC(=O)N2 (stereo not given) [carteolol],100,96.1,95.8,98.1,95.7,94.8,109,104,92.9,104,101,87.8,100,101,105,98.5,101,95.9,97.2,93.9,96.3,95.9,98.4,99,98.3,> 10,> 10,> 10,> 10,> 10,0,0,0,0,0
CO/N=C(\C(=O)N[C@@H]1C(=O)N2C(C(=O)[O-])=C(C[N+]3(C)CCCC3)CS[C@H]12)c1csc(N)n1 [cefepime],90.8,96.8,106,102,122,104,105,113,92.8,102,102,86,121,82.6,102,99.2,101,96.6,102,99.4,100,101,104,107,99.3,> 10,> 10,> 10,> 10,> 10,0,0,0,0,0
CO/N=C(\C(=O)N[C@@H]1C(=O)N2C(C(=O)OCOC(=O)C(C)(C)C)=C(C)CS[C@H]12)c1csc(N)n1 [cefetamet-pivoxil],108,96.5,105,99.7,97.9,104,93.2,102,114,103,102,113,90.9,97.8,93,102,93.5,99.6,104,99.5,91.5,103,89.5,91.7,108,> 10,> 10,> 10,> 10,> 10,0,0,0,0,0
CO[C@@]1(NC(=O)CSC[C@@H](N)C(=O)O)C(=O)N2C(C(=O)O)=C(CSc3nnnn3C)CS[C@@H]21 [cefminox],106,103,91.5,103,98.5,116,99.8,105,94.5,122,108,116,96.6,98.1,92.1,96.6,98.8,102,104,101,93.7,103,99.3,104,97.8,> 10,> 10,> 10,> 10,> 10,0,0,0,0,0
CCO/N=C(\C(=O)N[C@@H]1C(=O)N2C(C(=O)[O-])=C(Sc3nc(-c4cc[n+](C)cc4)cs3)CS[C@H]12)c1nsc(NP(=O)(O)O)n1 [ceftaroline-fosamil],94.2,101,89.4,105,93.2,116,109,98.4,106,98.6,116,95.2,105,101,104,103,106,99.5,107,102,106,99.6,107,97.9,102,> 10,> 10,> 10,> 10,> 10,0,0,0,0,0
O=C(O)CCCc1ccc(N(CCCl)CCCl)cc1 [chlorambucil],94.9,90.6,98.2,91.8,90.2,93,102,94.5,101,97.6,103,100,104,101,83.9,104,99.7,101,97.3,105,102,102,100,98.2,97.9,> 10,> 10,> 10,> 10,> 10,0,0,0.3,0,0
